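Cultured in 96-well plates, cells were exposed to test compound for 48 hours across five concentrations. The concentration for 50% growth inhibition is given as GI50. The concentration for full growth arrest is given as TGI.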
What was measured:
Experiment in all cases: NCI tumour cell line growth inhibition, 48 h
[1] = system: SR leukemia
[2] = system: RPMI-8226 leukemia
[3] = system: MOLT-4 leukemia
[4] = system: NCI-H226 lung
[5] = system: 786-0 renal
[6] = system: MCF7 breast
[7] = system: HCC-2998 colon
[8] = system: MDA-MB-435
[9] = system: NCI/ADR-RES ovarian
[10] = system: A549 NSCLC

## CCOC(=O)N1CCC(N=C2CSc3nnc(-c4cc(C(F)(F)F)cc(C(F)(F)F)c4)n3N2)CC1
[1]
  GI50: 2.39 µM
  TGI: 6.23 µM
[2]
  GI50: 2.54 µM
  TGI: 7.11 µM
[3]
  GI50: 2.57 µM
  TGI: 5.31 µM
[4]
  GI50: 2.16 µM
  TGI: 5.02 µM
[5]
  GI50: 2.18 µM
  TGI: 5.21 µM
[6]
  GI50: 2.05 µM
  TGI: 4.98 µM
[7]
  GI50: 2.25 µM
  TGI: 4.78 µM
[8]
  GI50: 1.58 µM
  TGI: 3 µM
[9]
  GI50: 2.58 µM
  TGI: 8.08 µM

## CCO/C=C\C12CCCC1NC(c1ccccc1)(c1ccccc1)O2 (stereo unspecified)
[3]
  TGI: 46 µM
[4]
  TGI: > 100 µM
[5]
  TGI: > 100 µM
[10]
  TGI: > 100 µM

## COC(=O)CC[C@@H](C)[C@H]1CC[C@H]2[C@@H]3CC[C@@H]4C[C@H](O)CC[C@]4(C)[C@H]3CC[C@]12C
[1]
  TGI: 52.1 µM
[2]
  TGI: > 100 µM
[3]
  TGI: 40.7 µM
[4]
  TGI: 36.6 µM
[5]
  TGI: 33.8 µM
[6]
  TGI: 36.3 µM
[10]
  TGI: 36.6 µM
[8]
  TGI: 33 µM
[9]
  TGI: 43.6 µM

## C/C(=N\N=C(N)N)C(CN1CCOCC1)C(c1ccccc1)c1c(O)c2ccccc2oc1=O (stereo unspecified)
[1]
  TGI: > 100 µM
[2]
  TGI: > 100 µM
[3]
  TGI: > 100 µM
[4]
  TGI: > 100 µM
[5]
  TGI: > 100 µM
[10]
  TGI: > 100 µM
[7]
  TGI: > 100 µM

## COc1ccc(C(C2=C(O)CC(C)OC2=O)C2=C(O)CC(C)OC2=O)cc1 (stereo unspecified)
[1]
  TGI: > 100 µM
[2]
  TGI: > 100 µM
[3]
  TGI: > 100 µM
[4]
  TGI: > 100 µM
[5]
  TGI: > 100 µM
[10]
  TGI: > 100 µM
[7]
  TGI: > 100 µM

## CC1C(c2ccccc2)N(C)C(c2ccccc2)C(C)C1(O)c1ccccc1 (stereo unspecified)
[3]
  TGI: > 100 µM
[4]
  TGI: > 100 µM
[5]
  TGI: > 100 µM
[10]
  TGI: > 100 µM
[7]
  TGI: > 100 µM

## Nc1ccc(C#Cc2ccccc2C#CCCCCO)cc1
[2]
  GI50: 18.1 µM
  TGI: 44.2 µM
[3]
  GI50: 16.5 µM
  TGI: 35.1 µM
[4]
  GI50: 17.5 µM
  TGI: 40.5 µM
[5]
  GI50: 13.8 µM
  TGI: 27.5 µM
[6]
  GI50: 23.5 µM
  TGI: 52.2 µM
[10]
  GI50: 14.7 µM
  TGI: 28.7 µM
[7]
  GI50: 16.6 µM
  TGI: 31.3 µM
[8]
  GI50: 19.7 µM
  TGI: 36.6 µM
[9]
  GI50: 18.9 µM
  TGI: 40.4 µM

## Cc1ccc(NC(=O)COc2ccc(Cl)cc2)cc1Cl
[1]
  TGI: 69.7 µM
[2]
  TGI: > 100 µM
[3]
  TGI: > 100 µM
[4]
  TGI: > 100 µM
[5]
  TGI: > 100 µM
[6]
  TGI: > 100 µM
[10]
  TGI: > 100 µM
[8]
  TGI: > 100 µM
[9]
  TGI: > 100 µM

## C[C@]12CCC(=O)C=C1C[C@@H](O)[C@@H]1[C@@H]2CC[C@@]2(C)[C@H]1CC[C@]2(C)O
[1]
  TGI: > 100 µM
[2]
  TGI: > 100 µM
[4]
  TGI: > 100 µM
[5]
  TGI: > 100 µM
[6]
  TGI: > 100 µM
[10]
  TGI: > 100 µM
[7]
  TGI: > 100 µM
[8]
  TGI: > 100 µM
[9]
  TGI: > 100 µM

## Cc1ccc(/C=C2\CCCCC2=O)cc1
[3]
  TGI: 45.4 µM
[5]
  TGI: > 100 µM
[10]
  TGI: > 100 µM

## Cc1cc(N(CCC#N)S(=O)(=O)c2ccccc2)ccc1C=Nc1ccc(C(=O)O)cc1
[1]
  TGI: > 40.9 µM
[2]
  TGI: > 21.2 µM
[3]
  TGI: 13.8 µM
[4]
  TGI: 40.7 µM
[5]
  TGI: 16.1 µM
[6]
  TGI: > 100 µM
[10]
  TGI: 52.5 µM
[7]
  TGI: 27.5 µM
[8]
  TGI: > 100 µM

## COc1cc(/C=C2\[C@@H]3NC(Cc4c(OC)c(C)c(OC)c(OC)c43)C(=O)N2Cc2ccccc2)c(OC)c(C)c1OC
[1]
  TGI: 62.8 µM
[2]
  TGI: 91.8 µM
[3]
  TGI: 94 µM
[4]
  TGI: > 100 µM
[5]
  TGI: > 100 µM
[10]
  TGI: > 100 µM
[7]
  TGI: > 100 µM

## CCCCCCCCCC1CC(=O)OC2=C1C(=O)CCC2 (stereo unspecified)
[1]
  TGI: > 100 µM
[2]
  TGI: > 100 µM
[3]
  TGI: > 100 µM
[4]
  TGI: > 100 µM
[5]
  TGI: > 100 µM
[10]
  TGI: > 100 µM
[7]
  TGI: > 100 µM

## NS(=O)(=O)c1ccc(-n2nc3c(c2-c2cccs2)Cc2ccccc2-3)cc1
[2]
  GI50: 6.68 µM
  TGI: 26.6 µM
[3]
  GI50: 1.43 µM
  TGI: 3.97 µM
[4]
  GI50: 4.9 µM
  TGI: 26.2 µM
[5]
  GI50: 17.1 µM
  TGI: 31.9 µM
[6]
  GI50: > 100 µM
  TGI: > 100 µM
[10]
  GI50: 20.7 µM
  TGI: 51.1 µM
[7]
  GI50: 12.8 µM
  TGI: 25.4 µM
[8]
  GI50: 11.8 µM
  TGI: 27.6 µM
[9]
  GI50: 12.4 µM
  TGI: 26.1 µM

## COC(=O)C1=C(C)NC(=S)NC1c1ccc(N(CCCl)CCCl)cc1Cl (stereo unspecified)
[2]
  TGI: > 4.64 µM
[3]
  TGI: 40 µM
[4]
  TGI: > 45.7 µM
[5]
  TGI: > 100 µM
[6]
  TGI: 66.1 µM
[10]
  TGI: > 58.7 µM
[8]
  TGI: 37.4 µM
[9]
  TGI: > 100 µM

## CC(C)(C)NCC(O)c1ccccc1Cl (stereo unspecified)
[2]
  GI50: > 100 µM
  TGI: > 100 µM
[3]
  GI50: > 100 µM
  TGI: > 100 µM
[4]
  GI50: > 100 µM
  TGI: > 100 µM
[5]
  GI50: > 100 µM
  TGI: > 100 µM
[6]
  GI50: > 100 µM
  TGI: > 100 µM
[10]
  GI50: > 100 µM
  TGI: > 100 µM
[7]
  GI50: > 100 µM
  TGI: > 100 µM
[8]
  GI50: > 100 µM
  TGI: > 100 µM
[9]
  GI50: > 100 µM
  TGI: > 100 µM

## CC(=O)C1=C(C)N(Cc2ccccc2)C2(O)C=CC(=O)C3=C(O)c4ccccc4C(=O)C312 (stereo unspecified)
[2]
  GI50: 2.35 µM
  TGI: 6.38 µM
[3]
  GI50: 3.34 µM
  TGI: > 100 µM
[4]
  GI50: 8.12 µM
  TGI: 22.1 µM
[5]
  GI50: 2.26 µM
  TGI: 4.26 µM
[6]
  GI50: 3.8 µM
  TGI: 26.2 µM
[10]
  GI50: 20.1 µM
  TGI: > 100 µM
[7]
  GI50: 13 µM
  TGI: 36.4 µM
[8]
  GI50: 2.26 µM
  TGI: 4.14 µM
[9]
  GI50: 3.02 µM
  TGI: > 100 µM

## O=[N+]([O-])c1ccc2c(c1)C(N1CCN(CCO)CC1)Cc1ccc(F)cc1S2 (stereo unspecified)
[1]
  TGI: 20.6 µM
[3]
  TGI: 9.21 µM
[4]
  TGI: 23.1 µM
[5]
  TGI: 26.4 µM
[6]
  TGI: 28.8 µM
[10]
  TGI: 26.3 µM
[7]
  TGI: 8.83 µM
[9]
  TGI: 25.4 µM

## COc1nn(C)cc1Nc1nccc(-c2c[nH]c3c(NC(=O)[C@@H](C)N4CCN(C)CC4)cccc23)n1
[2]
  GI50: 49.5 µM
  TGI: > 100 µM
[3]
  GI50: 37.8 µM
  TGI: > 100 µM
[4]
  GI50: 14.3 µM
  TGI: > 100 µM
[5]
  GI50: 28.8 µM
  TGI: > 100 µM
[6]
  GI50: 31.7 µM
  TGI: > 100 µM
[10]
  GI50: 44.3 µM
  TGI: > 100 µM
[7]
  GI50: > 100 µM
  TGI: > 100 µM
[8]
  GI50: 24.3 µM
  TGI: 82.3 µM
[9]
  GI50: 61.9 µM
  TGI: > 100 µM

## CC1(c2ccc(F)cc2)C2C(=O)NC(=O)C1C(=O)NC2=O (stereo unspecified)
[2]
  TGI: > 100 µM
[3]
  TGI: > 100 µM
[4]
  TGI: > 100 µM
[5]
  TGI: > 100 µM
[10]
  TGI: > 100 µM
[7]
  TGI: > 100 µM
